Measurements published in PubChem BioAssay (NCI).
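Test compounds were applied to cells in 96-well plates for 48 hours at 5 doses. GI50: concentration for 50% inhibition of growth. TGI: concentration producing complete growth inhibition.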

Legend:
Experiment in all cases: DTP human tumour cell line panel, 48 h
[1] = system: SK-MEL-28 melanoma
[2] = system: EKVX NSCLC
[3] = system: HCC-2998 colon
[4] = system: NCI-H522 lung
[5] = system: SN12C renal
[6] = system: M14 melanoma
[7] = system: HT29 colon
[8] = system: OVCAR-8 ovarian
[9] = system: OVCAR-5 ovarian
[10] = system: SK-OV-3 ovarian
[11] = system: U251 CNS
[12] = system: NCI-H23 lung
[13] = system: 786-0 renal
[14] = system: NCI-H460 lung
[15] = system: HCT-116 colon
[16] = system: SK-MEL-2 melanoma
[17] = system: A498 renal
[18] = system: HCT-15 colon
[19] = system: MALME-3M melanoma
[20] = system: OVCAR-3 ovarian
[21] = system: SK-MEL-5 melanoma
[22] = system: NCI/ADR-RES ovarian
[23] = system: SNB-19 CNS
[24] = system: T-47D breast
[25] = system: SNB-75 CNS
[26] = system: SF-295 CNS
[27] = system: A549 NSCLC
[28] = system: CAKI-1 renal
[29] = system: TK-10 renal
[30] = system: RXF 393 renal
[31] = system: COLO 205 colon
[32] = system: SF-268 CNS
[33] = system: HS 578T breast
[34] = system: UACC-257 melanoma
[35] = system: SF-539 CNS
[36] = system: KM12 colon
[37] = system: ACHN renal
[38] = system: UACC-62 melanoma
[39] = system: K-562 leukemia
[40] = system: MOLT-4 leukemia
[41] = system: SR leukemia
[42] = system: SW-620 colon
[43] = system: DU-145 prostate
[44] = system: BT-549 breast
[45] = system: HOP-62 NSCLC
[46] = system: NCI-H226 lung
[47] = system: UO-31 renal
[48] = system: CCRF-CEM leukemia
[49] = system: PC-3 prostate
[50] = system: IGROV1 ovarian
[51] = system: RPMI-8226 leukemia
[52] = system: MDA-MB-435
[53] = system: HOP-92 NSCLC
[54] = system: HL-60(TB) leukemia
[55] = system: MDA-MB-231 breast
[56] = system: OVCAR-4 ovarian

CCOC(=O)c1ccc(NC2=C(Cl)C(=O)c3nc(C)ccc3C2=O)cc1
GI50 [1]: 2470 nM
TGI [1]: 6.02 µM
GI50 [2]: 2530 nM
TGI [2]: 7.55 µM
GI50 [3]: 3.63 µM
TGI [3]: 13.8 µM
GI50 [4]: 1710 nM
TGI [4]: 3.72 µM
GI50 [5]: 3.51 µM
TGI [5]: 20.2 µM
GI50 [6]: 1850 nM
TGI [6]: 3.76 µM
GI50 [7]: 2180 nM
TGI [7]: 5.13 µM
GI50 [8]: 4.38 µM
TGI [8]: 18.4 µM
GI50 [9]: 13.2 µM
TGI [9]: 33.7 µM
GI50 [10]: 10.5 µM
TGI [10]: 23.9 µM
GI50 [11]: 3.75 µM
TGI [11]: 16.1 µM
GI50 [12]: 2310 nM
TGI [12]: 7.58 µM
GI50 [13]: 1880 nM
TGI [13]: 3.93 µM
GI50 [14]: 8.76 µM
TGI [14]: 30.1 µM
GI50 [15]: 1870 nM
TGI [15]: 4.36 µM
GI50 [16]: 2890 nM
TGI [16]: 9.46 µM
GI50 [17]: 11.7 µM
TGI [17]: 28.3 µM
GI50 [18]: 1570 nM
TGI [18]: 3.37 µM
GI50 [19]: 1830 nM
TGI [19]: 3.62 µM
GI50 [20]: 1780 nM
TGI [20]: 3.22 µM
GI50 [21]: 2210 nM
TGI [21]: 5.63 µM
GI50 [22]: 2570 nM
TGI [22]: 9.61 µM
GI50 [23]: 4.76 µM
TGI [23]: 89.4 µM
GI50 [24]: 2100 nM
TGI [24]: 5.09 µM
GI50 [25]: 2300 nM
TGI [25]: 10.3 µM
GI50 [26]: 5.48 µM
TGI [26]: 19.1 µM
GI50 [27]: 19.4 µM
TGI [27]: 70.5 µM
GI50 [28]: 1530 nM
TGI [28]: 2990 nM
GI50 [29]: 1790 nM
TGI [29]: 3.24 µM
GI50 [30]: 1630 nM
TGI [30]: 3.02 µM
GI50 [31]: 1750 nM
TGI [31]: 3.58 µM
GI50 [32]: 3.86 µM
TGI [32]: 17.1 µM
GI50 [33]: 2550 nM
TGI [33]: 7 µM
GI50 [34]: 1630 nM
TGI [34]: 3.12 µM
GI50 [35]: 2520 nM
TGI [35]: 6.72 µM
GI50 [36]: 3.37 µM
TGI [36]: 12.9 µM
GI50 [37]: 1810 nM
TGI [37]: 3.35 µM
GI50 [38]: 2460 nM
TGI [38]: 11.2 µM
GI50 [39]: 371 nM
TGI [39]: 3.3 µM
GI50 [40]: 1570 nM
TGI [40]: 5.32 µM
GI50 [41]: 783 nM
TGI [41]: 3.57 µM
GI50 [42]: 2060 nM
TGI [42]: 4.41 µM
GI50 [43]: 1820 nM
TGI [43]: 3.4 µM
GI50 [44]: 2060 nM
TGI [44]: 5.1 µM
GI50 [45]: 10.2 µM
TGI [45]: 23.9 µM
GI50 [46]: 3.43 µM
TGI [46]: 17.5 µM
GI50 [47]: 1540 nM
TGI [47]: 3.01 µM
GI50 [48]: 1270 nM
TGI [48]: 4.88 µM
GI50 [49]: 3.31 µM
TGI [49]: 15.7 µM
GI50 [50]: 3.43 µM
TGI [50]: 11.3 µM
GI50 [51]: 2160 nM
TGI [51]: 5.95 µM
GI50 [52]: 3.21 µM
TGI [52]: 10.8 µM
GI50 [53]: 1800 nM
TGI [53]: 3.48 µM
GI50 [54]: 1100 nM
TGI [54]: 3.21 µM
GI50 [55]: 3.73 µM
TGI [55]: 17.1 µM
GI50 [56]: 1670 nM
TGI [56]: 3.26 µM
